Values quoted from earlier work, collected in patent publication US20180200208A1, “COMPOSITIONS FOR IMPROVING OR MAINTAINING MYOCARDIAL FUNCTION” (RepoCeuticals ApS, priority 2015, published 2018).

Experiments:
[1] = biological target: T1, recombinant MT2 receptor (Homo sapiens, UniProt P49286); conditions: relative to melatonin
T1 sequence (P49286 1-362): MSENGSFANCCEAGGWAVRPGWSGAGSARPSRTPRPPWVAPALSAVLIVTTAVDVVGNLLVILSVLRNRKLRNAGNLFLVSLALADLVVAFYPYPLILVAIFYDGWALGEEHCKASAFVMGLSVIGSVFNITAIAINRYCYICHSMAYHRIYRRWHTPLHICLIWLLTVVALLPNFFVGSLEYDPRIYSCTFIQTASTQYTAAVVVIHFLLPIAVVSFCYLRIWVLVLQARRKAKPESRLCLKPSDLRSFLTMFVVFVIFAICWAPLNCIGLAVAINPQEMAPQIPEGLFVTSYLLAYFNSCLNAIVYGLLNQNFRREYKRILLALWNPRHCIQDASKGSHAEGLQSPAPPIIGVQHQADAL

[2] = biological target: recombinant MT1 receptor (Homo sapiens, UniProt P48039); conditions: relative to melatonin
recombinant MT1 receptor, sequence (P48039 whole entry): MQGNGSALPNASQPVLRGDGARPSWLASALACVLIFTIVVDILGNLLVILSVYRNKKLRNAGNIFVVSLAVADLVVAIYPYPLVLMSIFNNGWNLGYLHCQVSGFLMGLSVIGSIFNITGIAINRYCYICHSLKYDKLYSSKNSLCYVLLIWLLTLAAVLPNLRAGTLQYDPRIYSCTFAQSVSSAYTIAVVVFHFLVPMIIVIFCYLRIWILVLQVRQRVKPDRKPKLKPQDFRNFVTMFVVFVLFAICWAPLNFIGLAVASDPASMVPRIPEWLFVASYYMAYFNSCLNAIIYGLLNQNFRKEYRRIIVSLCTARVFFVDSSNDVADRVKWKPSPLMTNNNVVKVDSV

[3] = at 2-8° C.
[4] = system: patients with primary sleep disorders; conditions: oral doses of up to 5 mg

COc1cc2c(CCNC(C)=O)c[nH]c2cc1O [6-OHM, 6-hydroxymelatonin]
affinity for recombinant MT2 receptor as % of that of melatonin [1]: 13%
affinity for recombinant MT1 receptor as % of that of melatonin [2]: 20%

COc1ccc(NC=O)c(C(=O)CCNC(C)=O)c1 [AFMK, N^1-acetyl-N^2-formyl-5-methoxykynuramine]
long-term stability [3]: good long-term stability
solubility in DMSO: soluble in DMSO
solubility in water: insoluble in water

COC1=C(OC)C(=O)C(C/C=C(\C)CC/C=C(\C)CC/C=C(\C)CC/C=C(\C)CC/C=C(\C)CC/C=C(\C)CC/C=C(\C)CC/C=C(\C)CC/C=C(\C)CCC=C(C)C)=C(C)C1=O [Coenzyme Q10]
solubility in ethanol, dimethyl sulfoxide and various oils: can be dissolved
solubility in water: almost water-insoluble

COc1ccc2[nH]cc(CCNC(C)=O)c2c1 [Melatonin, N-acetyl-5-methoxytryptamine]
solubility in DMSO: soluble in DMSO
solubility in water: insoluble in water
increase of sleep duration (average) [4]: 7 to 8 min
reduction of sleep latency (average) [4]: 7 to 8 min

CC(=O)NCCc1c[nH]c2ccc(O)cc12 [N-acetylserotonin]
affinity for recombinant MT2 receptor as % of that of melatonin [1]: 0.22%
affinity for recombinant MT1 receptor as % of that of melatonin [2]: 0.14%

O=C1C[C@@H](c2ccc(O)cc2)Oc2cc(O)cc(O)c21 [Naringenin, naringenin]
solubility in ethanol, dimethyl sulfoxide and various oils: readily soluble
solubility in water: almost insoluble in water

Oc1ccc(C=Cc2cc(O)cc(O)c2)cc1 [Resveratrol, resveratrol]
solubility in ethanol, dimethyl sulfoxide and various oils: readily soluble
solubility in water: almost insoluble in water
